Values of other authors in patent US20170106110A1, “ALLERGEN REDUCING COMPOSITION, SPRAY AGENT INCLUDING THE SAME AND SURFACE TREATMENT AGENT INCLUDING THE SAME, ALLERGEN REDUCING METHOD, ALLERGEN REDUCING TEXTILE STRUCTURE AND ALLERGEN REDUCING ARCHITECTURAL INTERIOR MATERIAL” (SC ENVIRONMENTAL SCIENCE CO., LTD., priority 2014, published 2017).

Details: rat

In the case of zinc gluconate, the “value of acute oral toxicity” value is listed as “exceeds 5,000 mg/kg”.
